These results are taken from patent US20120071475A1, “UREA DERIVATIVES HAVING PI3K-INHIBITING ACTIVITY” (SHIONOGI & CO., LTD., priority 2009, published 2012).

One data set deals with PI3Kδ (Homo sapiens, UniProt O00329). Description: PI3Kδ inhibitory activity (Ki value). The class given is biochemical. As to the method: According to Example 2 above, after 80 μg/mL PI-3 kinase γ of the enzyme solution (80 μg/mL PI-3 kinase γ, 10 mmol/L MgCl2, 5 mmol/L DTT) was changed to 158 μg/mL PI-3 kinase δ, a method similar to the method for measuring PI3Kγ inhibitory activity was used to calculate an inhibition ratio, which was defined as the PI3Kδ inhibitory activity.
According to Example 4 above, a Km value for PI3Kδ was determined to calculate a Ki value.

A further data set addresses PI3Kα (Homo sapiens, UniProt P42336). The data set can be described thus: PI3Kα inhibitory activity (Ki value). The class given is biochemical. Summed up:
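Enzyme solution held 0.8 μg/mL PI3Kα with 10 mmol/L MgCl2 and 5 mmol/L DTT; inhibition ratio obtained as for the PI3Kγ assay. Ki calculated using a separately determined Km for PI3Kα.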

A further data set has as its target T1, CYP3A4 (Homo sapiens, UniProt P08684).
T1 construct: host or cells: E. coli
The data set can be described thus: CYP3A4 fluorescence MBI test. It is filed as in vitro ADME. The settings on record: difference in IC50 with 0 or 30 minutes pre-reaction; CYP3A4 expressed in E. coli, substrate 7-BFC. In outline:
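E. coli-expressed CYP3A4 debenzylating 5.6 μmol/L 7-BFC to fluorescent 7-HFC (Ex 420/Em 535 nm) in K-Pi pH 7.4 at 25° C, 15 min reaction. NADPH pre-incubation of 0 or 30 min, with 10-fold dilution before reaction. IC50 from 0.625–20 μmol/L (6 points); (+) for an IC50 shift ≥5 μmol/L, (−) for ≤3 μmol/L.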

The next data set concerns the target PI3Kγ (Homo sapiens, UniProt P48736). Description: PI3Kγ inhibitory activity (Ki value). The class given is biochemical. In outline:
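Ki derived from IC50 measured at final compound levels of 50–0.05 μmol/L (HTRF read-out; 40 μmol/L ATP, 10 mmol/L MgCl2, 5 mmol/L DTT), IC50 by logistic or two-point linear fit. ATP Km from Lineweaver-Burk over 0.625–80 μmol/L ATP; Ki = IC50/(1+[ATP]/Km).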

Data set [1] in a line: Metabolic stability test (pooled human liver microsome). The class given is in vitro ADME. The settings on record: percentage of test compound remained after 30 minutes, pooled human liver microsome 0.5 mg protein/mL, 1 mmol/L NADPH, 37° C., compound 0.5 μM. In outline: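 Pooled human liver microsomes (0.5 mg protein/mL) incubated with compound and 1 mmol/L NADPH at 37° C. in pH 7.4 Tris buffer for 0 or 30 min. Parent quantified by LC/MS/MS after methanol/acetonitrile quench; value is % remaining at 30 min versus 0 min.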
A general note: Microsomes from liver hold many membrane-bound enzymes, among them those of drug oxidation.

The mark [2] stands for this setting: class symbols, read-out: PI3K δ Ki.
Setting [3] is: class symbols, read-out: PI3K α Ki.
[4] abbreviates: class symbols, read-out: PI3K γ Ki.

Where two headings read alike, the source gives them in different places. Where only a bound is given, the exact number is not on record here.

T1 sequence (P08684 whole entry): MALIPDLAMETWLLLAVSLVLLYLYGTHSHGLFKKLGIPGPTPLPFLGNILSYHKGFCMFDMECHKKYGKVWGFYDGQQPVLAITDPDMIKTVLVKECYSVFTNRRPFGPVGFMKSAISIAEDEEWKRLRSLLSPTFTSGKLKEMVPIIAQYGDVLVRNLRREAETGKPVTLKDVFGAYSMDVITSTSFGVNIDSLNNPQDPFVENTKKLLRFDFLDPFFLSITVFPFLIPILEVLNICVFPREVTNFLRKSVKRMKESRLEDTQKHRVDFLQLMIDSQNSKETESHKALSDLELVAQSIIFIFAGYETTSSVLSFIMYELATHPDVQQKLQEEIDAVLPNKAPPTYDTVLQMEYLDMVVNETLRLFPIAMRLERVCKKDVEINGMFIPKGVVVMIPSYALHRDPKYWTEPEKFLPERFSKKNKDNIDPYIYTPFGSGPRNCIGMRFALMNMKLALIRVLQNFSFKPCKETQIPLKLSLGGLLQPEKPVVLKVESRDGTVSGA
PI3Kγ, sequence (P48736 whole entry, species assumed): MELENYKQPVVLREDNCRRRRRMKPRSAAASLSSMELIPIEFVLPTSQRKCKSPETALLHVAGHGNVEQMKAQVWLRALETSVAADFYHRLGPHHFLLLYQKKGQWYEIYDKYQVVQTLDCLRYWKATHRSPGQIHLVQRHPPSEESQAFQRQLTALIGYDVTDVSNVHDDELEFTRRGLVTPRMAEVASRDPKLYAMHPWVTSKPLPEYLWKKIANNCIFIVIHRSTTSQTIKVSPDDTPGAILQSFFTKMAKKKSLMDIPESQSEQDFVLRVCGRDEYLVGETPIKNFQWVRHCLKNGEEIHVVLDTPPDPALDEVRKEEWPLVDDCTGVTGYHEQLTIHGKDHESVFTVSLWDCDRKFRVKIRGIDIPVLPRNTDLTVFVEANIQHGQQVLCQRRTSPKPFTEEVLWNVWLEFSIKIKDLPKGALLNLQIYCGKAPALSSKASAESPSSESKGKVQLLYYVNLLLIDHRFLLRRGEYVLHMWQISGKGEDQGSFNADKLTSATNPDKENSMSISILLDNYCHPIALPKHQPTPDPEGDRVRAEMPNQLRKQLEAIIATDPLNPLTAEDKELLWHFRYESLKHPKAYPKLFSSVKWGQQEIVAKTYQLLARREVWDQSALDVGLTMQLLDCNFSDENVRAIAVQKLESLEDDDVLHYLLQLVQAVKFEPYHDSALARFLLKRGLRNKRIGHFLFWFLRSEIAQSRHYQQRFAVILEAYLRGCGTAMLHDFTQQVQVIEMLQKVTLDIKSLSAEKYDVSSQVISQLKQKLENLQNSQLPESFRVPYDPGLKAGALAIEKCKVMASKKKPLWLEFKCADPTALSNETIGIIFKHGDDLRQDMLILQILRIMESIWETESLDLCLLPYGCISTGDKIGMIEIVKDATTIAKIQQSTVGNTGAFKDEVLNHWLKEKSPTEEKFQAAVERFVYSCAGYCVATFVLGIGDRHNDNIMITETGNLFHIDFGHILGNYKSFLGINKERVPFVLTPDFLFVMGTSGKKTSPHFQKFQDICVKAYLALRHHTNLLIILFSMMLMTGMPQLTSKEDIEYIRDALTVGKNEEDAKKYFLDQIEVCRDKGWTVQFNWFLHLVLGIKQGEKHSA
PI3Kδ, sequence (O00329 whole entry, species assumed): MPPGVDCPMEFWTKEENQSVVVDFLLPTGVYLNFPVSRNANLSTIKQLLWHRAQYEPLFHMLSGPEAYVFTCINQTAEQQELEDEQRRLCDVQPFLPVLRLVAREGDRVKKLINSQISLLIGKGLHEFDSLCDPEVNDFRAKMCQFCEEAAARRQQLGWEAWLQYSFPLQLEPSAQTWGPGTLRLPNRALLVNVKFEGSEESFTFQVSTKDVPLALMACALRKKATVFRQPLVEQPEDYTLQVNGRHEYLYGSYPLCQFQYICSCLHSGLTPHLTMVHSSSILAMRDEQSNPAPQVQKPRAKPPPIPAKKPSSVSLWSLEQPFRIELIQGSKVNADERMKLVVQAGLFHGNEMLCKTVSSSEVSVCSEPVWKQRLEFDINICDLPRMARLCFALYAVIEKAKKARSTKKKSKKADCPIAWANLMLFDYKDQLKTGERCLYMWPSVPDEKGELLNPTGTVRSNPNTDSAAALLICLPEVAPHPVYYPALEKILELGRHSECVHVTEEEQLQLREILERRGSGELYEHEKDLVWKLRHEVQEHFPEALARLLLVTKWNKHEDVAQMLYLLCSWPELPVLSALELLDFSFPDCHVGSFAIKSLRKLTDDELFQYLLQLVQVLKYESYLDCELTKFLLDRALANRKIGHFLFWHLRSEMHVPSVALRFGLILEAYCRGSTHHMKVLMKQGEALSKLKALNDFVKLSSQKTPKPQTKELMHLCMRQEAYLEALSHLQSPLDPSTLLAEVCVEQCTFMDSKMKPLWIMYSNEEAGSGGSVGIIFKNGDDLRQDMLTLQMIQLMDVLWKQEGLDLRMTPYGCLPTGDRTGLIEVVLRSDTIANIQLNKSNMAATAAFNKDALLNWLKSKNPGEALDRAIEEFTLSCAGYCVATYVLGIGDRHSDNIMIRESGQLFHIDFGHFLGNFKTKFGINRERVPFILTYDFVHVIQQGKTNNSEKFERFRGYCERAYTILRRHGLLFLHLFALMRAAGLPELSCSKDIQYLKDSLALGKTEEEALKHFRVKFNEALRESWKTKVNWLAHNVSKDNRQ
PI3Kδ, sequence (P27986 whole entry partner, species assumed): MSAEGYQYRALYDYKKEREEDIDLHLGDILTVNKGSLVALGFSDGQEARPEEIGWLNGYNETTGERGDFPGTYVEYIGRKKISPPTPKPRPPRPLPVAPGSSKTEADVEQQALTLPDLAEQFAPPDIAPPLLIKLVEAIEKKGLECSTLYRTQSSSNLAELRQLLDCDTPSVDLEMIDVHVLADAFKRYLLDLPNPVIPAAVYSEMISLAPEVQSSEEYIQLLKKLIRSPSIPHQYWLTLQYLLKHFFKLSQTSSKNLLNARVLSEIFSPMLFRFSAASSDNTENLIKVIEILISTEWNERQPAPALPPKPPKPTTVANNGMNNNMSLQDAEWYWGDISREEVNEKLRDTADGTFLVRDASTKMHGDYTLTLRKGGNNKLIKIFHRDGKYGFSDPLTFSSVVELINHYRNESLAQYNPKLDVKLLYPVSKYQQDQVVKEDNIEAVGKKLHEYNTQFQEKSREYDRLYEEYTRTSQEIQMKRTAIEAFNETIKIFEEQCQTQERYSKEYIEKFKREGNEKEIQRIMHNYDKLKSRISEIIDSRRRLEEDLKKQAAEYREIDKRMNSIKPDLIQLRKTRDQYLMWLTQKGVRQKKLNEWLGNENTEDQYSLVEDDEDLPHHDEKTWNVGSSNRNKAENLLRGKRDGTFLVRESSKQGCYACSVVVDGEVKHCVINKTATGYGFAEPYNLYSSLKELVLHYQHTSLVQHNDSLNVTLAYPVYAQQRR
PI3Kα, sequence (P42336 whole entry, species assumed): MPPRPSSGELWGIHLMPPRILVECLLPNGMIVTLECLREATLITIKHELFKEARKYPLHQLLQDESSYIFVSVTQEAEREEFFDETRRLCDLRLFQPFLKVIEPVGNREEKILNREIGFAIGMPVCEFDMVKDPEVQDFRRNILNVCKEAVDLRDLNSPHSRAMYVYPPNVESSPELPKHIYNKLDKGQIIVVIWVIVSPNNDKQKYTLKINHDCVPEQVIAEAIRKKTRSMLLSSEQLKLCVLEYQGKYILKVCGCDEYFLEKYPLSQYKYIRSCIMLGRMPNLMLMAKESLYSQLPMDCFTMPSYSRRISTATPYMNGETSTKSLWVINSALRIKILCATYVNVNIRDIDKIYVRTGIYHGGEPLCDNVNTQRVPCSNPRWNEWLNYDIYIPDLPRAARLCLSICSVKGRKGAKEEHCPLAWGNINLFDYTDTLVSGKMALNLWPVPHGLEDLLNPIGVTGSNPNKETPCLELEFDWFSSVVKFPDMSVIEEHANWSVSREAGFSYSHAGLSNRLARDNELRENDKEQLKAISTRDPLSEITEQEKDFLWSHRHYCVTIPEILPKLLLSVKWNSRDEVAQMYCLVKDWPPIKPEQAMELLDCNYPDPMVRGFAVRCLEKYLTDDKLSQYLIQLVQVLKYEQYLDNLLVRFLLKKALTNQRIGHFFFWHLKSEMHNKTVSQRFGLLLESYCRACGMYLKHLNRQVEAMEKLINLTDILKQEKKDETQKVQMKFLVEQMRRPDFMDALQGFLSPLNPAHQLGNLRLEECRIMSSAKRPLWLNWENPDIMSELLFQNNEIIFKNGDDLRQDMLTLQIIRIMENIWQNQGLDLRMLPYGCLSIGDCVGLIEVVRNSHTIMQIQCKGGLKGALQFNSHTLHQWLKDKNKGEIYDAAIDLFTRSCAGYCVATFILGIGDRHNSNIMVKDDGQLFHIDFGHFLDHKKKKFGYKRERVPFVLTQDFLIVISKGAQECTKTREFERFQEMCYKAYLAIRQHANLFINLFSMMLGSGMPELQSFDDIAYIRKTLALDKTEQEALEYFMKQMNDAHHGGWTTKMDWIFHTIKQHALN
PI3Kα, sequence (P27986 whole entry partner, species assumed): as the sequence (P27986 whole entry partner, species assumed) above

Usually Ki stands for the dissociation constant of the complex between target and ligand, obtained from inhibition or displacement. For `COc1cc(N2CCc3nc(NC(=O)Nc4ccccc4C(=O)NC(C)C)sc3C2)nc(OC)n1` [Compound I-12], the Ki at PI3Kδ (setting [2]) is no more than 3 µM; at PI3Kδ (read-out: PI3Kδ Ki value), 0.59 µM; at PI3Kα (setting [3]), greater than 3 µM; at PI3Kα (read-out: PI3Kα Ki value) it was greater than 12 µM; at PI3Kγ (setting [4]), no more than 0.03 µM; at PI3Kγ (read-out: PI3Kγ Ki value) it was 0.0096 µM. Also, at CYP3A4, the MBI result is listed as “(−) (When 3 μmol/L or less, the compound is shown as (−))”.

For `COc1cc(N2CCc3nc(NC(=O)Nc4ccccc4C(=O)NCCF)sc3C2)nc(OC)n1` [Compound I-88], the MBI result on CYP3A4 was “(−) (When 3 μmol/L or less, the compound is shown as (−))”. In data set [1], the “hLMS_ox(at 0.5 μM) %” value is on record as 88.2%.

Regarding `COc1nc(Cl)cc(N2CCc3nc(NC(=O)Nc4cnccc4C(=O)NC(C)C)sc3C2)n1` [Compound I-91], the Ki on PI3Kδ (setting [2]) is no more than 3 µM; on PI3Kα (setting [3]), greater than 3 µM; on PI3Kγ (setting [4]), no more than 0.003 µM; on PI3Kγ (read-out: PI3Kγ Ki value) it was 0.0014 µM. The MBI entry on CYP3A4 is on record as “(−) (When 3 μmol/L or less, the compound is shown as (−))”.

In the case of `COc1cncc(-c2ccc3nc(NC(=O)Nc4ccccc4OCCC(C)C)cn3n2)c1` [Compound I-114], the Ki on PI3Kδ (setting [2]) is no more than 3 µM; at PI3Kδ (read-out: PI3Kδ Ki value), 2 µM; at PI3Kα (setting [3]) it was no more than 3 µM; at PI3Kα (read-out: PI3Kα Ki value), 1.1 µM; on PI3Kγ (setting [4]), no more than 0.3 µM; on PI3Kγ (read-out: PI3Kγ Ki value), 0.033 µM. For the same compound, the MBI entry at CYP3A4 is “(−) (When 3 μmol/L or less, the compound is shown as (−))”.

Consider `Cc1nc(NC(=O)Nc2ccccc2C(=O)NC(C)C)sc1-c1ccc(S(C)(=O)=O)c(F)c1` [Compound I-127], for which the Ki on PI3Kδ (setting [2]) is no more than 0.3 µM; on PI3Kδ (read-out: PI3Kδ Ki value), 0.081 µM; on PI3Kα (setting [3]) it was greater than 3 µM; on PI3Kα (read-out: PI3Kα Ki value) it was greater than 7 µM; at PI3Kγ (setting [4]), no more than 0.03 µM; on PI3Kγ (read-out: PI3Kγ Ki value), 0.016 µM. The “hLMS_ox(at 0.5 μM) %” value in data set [1] is recorded as 92.6%.

`CC(C)NC(=O)c1ccccc1NC(=O)Nc1nc2c(s1)CN(c1cncc(C(F)(F)F)c1)CC2` [Compound I-131]: the Ki on PI3Kδ (setting [2]) is greater than 3 µM; at PI3Kα (setting [3]) it was greater than 3 µM; on PI3Kγ (setting [4]), no more than 0.003 µM; on PI3Kγ (read-out: PI3Kγ Ki value) it was 0.0008 µM. The MBI result at CYP3A4 is “(−) (When 3 μmol/L or less, the compound is shown as (−))”.

On to `COc1cc(N2CCc3nc(NC(=O)Nc4ccccc4C(=O)NC(C)C(O)C(F)(F)F)sc3C2)nc(OC)n1` (stereo not shown) [Compound I-139], for which, at CYP3A4, the MBI result was “(−) (When 3 μmol/L or less, the compound is shown as (−))”. In addition, the “hLMS_ox(at 0.5 μM) %” value in data set [1] is 84.8%.

For the compound `COc1cc(N2CCc3nc(NC(=O)Nc4cn(C)nc4C(=O)NCC(F)(F)F)sc3C2)nc(OC)n1` [Compound I-148], the Ki is no more than 0.3 µM at PI3Kδ (setting [2]), no more than 3 µM at PI3Kα (setting [3]), no more than 0.03 µM at PI3Kγ (setting [4]) and 0.0055 µM at PI3Kγ (read-out: PI3Kγ Ki value). The “hLMS_ox(at 0.5 μM) %” value in data set [1] is listed as 87.9%.

With `Cc1nc(NC(=O)Nc2ccccc2C(=O)NC(C)C)sc1-c1csc(S(=O)(=O)N(C)CCN(C)C)c1` [Compound I-191], the Ki on PI3Kγ (read-out: PI3Kγ Ki value) was found to be 0.3 µM.

Take `COc1cc(N2CCc3nc(NC(=O)Nc4ccccc4C(=O)NN4CCN(C)CC4)sc3C2)nc(OC)n1` [Compound I-195]: the MBI entry at CYP3A4 is on record as “(−) (When 3 μmol/L or less, the compound is shown as (−))”. Besides, in data set [1], the “hLMS_ox(at 0.5 μM) %” value is recorded as 110%.

In the case of `COc1nc(Cl)cc(N2CCc3nc(NC(=O)Nc4ccccc4C(=O)NC4CCCOC4)sc3C2)n1` (stereo not shown) [Compound I-197], the Ki on PI3Kδ (setting [2]) was greater than 3 µM; at PI3Kα (setting [3]), greater than 3 µM; on PI3Kγ (setting [4]), no more than 0.003 µM; at PI3Kγ (read-out: PI3Kγ Ki value), 0.0023 µM.

As to `COc1cc(N2CCc3nc(NC(=O)Nc4ccccc4C(=O)NC4CCOCC4)sc3C2)nc(OC)n1` [Compound I-203], the “hLMS_ox(at 0.5 μM) %” value in data set [1] came to 88.5%.

Turning to `C[C@@H](CO)NC(=O)c1ccccc1NC(=O)Nc1nc2c(s1)CN(c1cncc(S(C)(=O)=O)c1)CC2` [Compound I-211], the MBI entry at CYP3A4 was “(−) (When 3 μmol/L or less, the compound is shown as (−))”.

Turning to `COc1cncc(-c2cc(NC(=O)Nc3ccccc3C(=O)NC(C)C)nn2C)c1` [Compound I-226], the Ki is no more than 3 µM at PI3Kδ (setting [2]), greater than 3 µM on PI3Kα (setting [3]), no more than 3 µM at PI3Kγ (setting [4]) and 0.83 µM on PI3Kγ (read-out: PI3Kγ Ki value). The MBI entry on CYP3A4 is given as “(−) (When 3 μmol/L or less, the compound is shown as (−))”. In addition, in data set [1], the “hLMS_ox(at 0.5 μM) %” value amounted to 82.5%.
